# Earlier results, collected in patent EP4241780A1, “ENRICHED POLYPHENOLIC FRACTIONS OF ARONIA EXTRACTS AND USES THEREOF” (Diana, priority 2022, dated 2023).
# Tested on: HepG2 cells
# Details: 100% pure compounds, reference [31], Figure 4
row,EC50 intracellular antioxidant activity of pure compounds [µg/mL],Structure (SMILES)
1,7,O=c1c(O)c(-c2ccc(O)c(O)c2)oc2cc(O)cc(O)c12 [quercetin]
2,14.8,Oc1ccc(C=Cc2cc(O)cc(O)c2)cc1 [resveratrol]
